Results as given in ChEMBL document CHEMBL4038285, “Synthesis, molecular docking, antimycobacterial and antimicrobial evaluation of new pyrrolo[3,2-c]pyridine Mannich bases” (Eur J Med Chem, 2017).
≈ marks a conversion by molar mass, not a printed value. Calls of active or inactive are those of the source. The calls are words filed in the database; no cut-off is given here.

Experiments:
Staphylococcus aureus [1] = test: Antibacterial activity against Staphylococcus aureus NCIM 5345 after 24 hrs by broth microdilution method; type: functional; settings: NCIM 5345, 24 h
Aspergillus terreus = test: Antifungal activity against Aspergillus terreus MTCC 1782 assessed as diameter of inhibition zone after 4 days by agar well diffusion method; type: functional
Staphylococcus aureus [2] = test: Antibacterial activity against Staphylococcus aureus NCIM 5345 assessed as diameter of inhibition zone measured after 20 hrs by agar well diffusion method; type: functional
Bacillus flexus [3] = test: Antibacterial activity against Bacillus flexus MTCC 2909 assessed as diameter of inhibition zone measured after 20 hrs by agar well diffusion method; type: functional, Priestia flexa
Clostridium sporogenes [4] = test: Antibacterial activity against Clostridium sporogenes NICM 2559 assessed as diameter of inhibition zone measured after 20 hrs by agar well diffusion method; type: functional
Streptococcus mutans [5] = test: Antibacterial activity against Streptococcus mutans MTCC 890 assessed as diameter of inhibition zone measured after 20 hrs by agar well diffusion method; type: functional
Pseudomonas sp. = test: Antibacterial activity against Pseudomonas sp. NCIM 2872 assessed as diameter of inhibition zone measured after 20 hrs by agar well diffusion method; type: functional
Escherichia coli = test: Antibacterial activity against Escherichia coli NCIM 2931 assessed as diameter of inhibition zone measured after 20 hrs by agar well diffusion method; type: functional
Pseudomonas aeruginosa = test: Antibacterial activity against Pseudomonas aeruginosa MTCC 4727 assessed as diameter of inhibition zone measured after 20 hrs by agar well diffusion method; type: functional
Klebsiella pneumoniae = test: Antibacterial activity against Klebsiella pneumoniae PTCC 1053 assessed as diameter of inhibition zone measured after 20 hrs by agar well diffusion method; type: functional
Scopulariopsis sp = test: Antifungal activity against Scopulariopsis sp. MTCC 3553 assessed as diameter of inhibition zone after 4 days by agar well diffusion method; type: functional
Bacillus flexus [6] = test: Antibacterial activity against Bacillus flexus MTCC 2909 after 24 hrs by broth microdilution method; type: functional; settings: Priestia flexa, MTCC 2909, 24 h
Clostridium sporogenes [7] = test: Antibacterial activity against Clostridium sporogenes NICM 2559 after 24 hrs by broth microdilution method; type: functional; settings: NICM 2559, 24 h
Streptococcus mutans [8] = test: Antibacterial activity against Streptococcus mutans MTCC 890 after 24 hrs by broth microdilution method; type: functional; settings: MTCC 890, 24 h
[9] = test system: Mycobacterium tuberculosis; test: Antimycobacterial activity against Mycobacterium tuberculosis H37Rv ATCC 27294 after 7 days by microplate alamar blue assay; type: functional; settings: H37Rv ATCC 27294, 168 h
[10] = Growth inhibition of human HEK293T cells at 50 ug/ml after 72 hrs by MTT assay relative to control; type: cell-based, HEK-293T; settings: read-out: GI
HEK-293T = test: Growth inhibition of human HEK293T cells after 72 hrs by MTT assay; type: cell-based
[11] = Selectivity index, ratio of IC50 for human HEK293T cells to MIC for Mycobacterium tuberculosis H37Rv ATCC 27294; type: toxicity; settings: read-out: Selectivity Index

| Compound | MIC (Staphylococcus aureus [1]) [µg/mL] | diameter of the inhibition zone (DIZ) (Aspergillus terreus) | diameter of the inhibition zone (DIZ) (Staphylococcus aureus [2]) | diameter of the inhibition zone (DIZ) (Bacillus flexus [3]) [mm] | diameter of the inhibition zone (DIZ) (Clostridium sporogenes [4]) | diameter of the inhibition zone (DIZ) (Streptococcus mutans [5]) | diameter of the inhibition zone (DIZ) (Pseudomonas sp.) | diameter of the inhibition zone (DIZ) (Escherichia coli) | diameter of the inhibition zone (DIZ) (Pseudomonas aeruginosa) | diameter of the inhibition zone (DIZ) (Klebsiella pneumoniae) | diameter of the inhibition zone (DIZ) (Scopulariopsis sp) | MIC (Bacillus flexus [6]) [µg/mL] | MIC (Clostridium sporogenes [7]) [µg/mL] | MIC (Streptococcus mutans [8]) [µg/mL] | MIC [9] [µg/mL] | also measured |
| --- | --- | --- | --- | --- | --- | --- | --- | --- | --- | --- | --- | --- | --- | --- | --- | --- |
| Clc1nccc2[nH]c(-c3ccccc3)c(CN3CCOCC3)c12 | > 50 | inactive | 10 mm | 10 | 10 mm | 10 mm | inactive | inactive | inactive | inactive | inactive | > 50 | > 50 | > 50 | > 25 |  |
| OCCN1CCN(Cc2c(-c3ccccc3)[nH]c3ccnc(Cl)c23)CC1 | > 50 | inactive | 10 mm | 10 | 10 mm | 10 mm | inactive | inactive | inactive | inactive | inactive | > 50 | > 50 | > 50 | > 25 |  |
| CN[C@@H]1[C@H](O[C@H]2[C@H](O[C@H]3[C@H](O)[C@@H](O)[C@H](N=C(N)N)[C@@H](O)[C@@H]3N=C(N)N)O[C@@H](C)[C@]2(O)C=O)O[C@@H](CO)[C@H](O)[C@H]1O [STREPTOMYCIN] | 2 (≈ 3.44 µM) | inactive | 32 mm | 32 | 32 mm | 32 mm | 32 mm | 32 mm | 32 mm | 32 mm | inactive | 1.5 (≈ 2.58 µM) | 1 (≈ 1.72 µM) | 0.5 (≈ 0.86 µM) |  |  |
| CC[C@@H](CO)NCCN[C@@H](CC)CO [ETHAMBUTOL] |  |  |  |  |  |  |  |  |  |  |  |  |  |  | 3.12 (≈ 15.3 µM) |  |
| CO[C@H]1/C=C/O[C@@]2(C)Oc3c(C)c(O)c4c(O)c(c(/C=N/N5CCN(C)CC5)c(O)c4c3C2=O)NC(=O)/C(C)=C\C=C\[C@H](C)[C@H](O)[C@@H](C)[C@@H](O)[C@@H](C)[C@H](OC(C)=O)[C@@H]1C [RIFAMPIN] |  |  |  |  |  |  |  |  |  |  |  |  |  |  | 0.02 (≈ 0.0243 µM) |  |
| NNC(=O)c1ccncc1 [ISONIAZID] |  |  |  |  |  |  |  |  |  |  |  |  |  |  | 0.36 (≈ 2.63 µM) |  |
| NYSTATIN |  |  | inactive |  | inactive | inactive | inactive | inactive | inactive | inactive |  |  |  |  |  | inhibition zone (IZ) (Aspergillus terreus): 32 mm; diameter of the inhibition zone (DIZ) (Bacillus flexus [3]; Priestia flexa): inactive; inhibition zone (IZ) (Scopulariopsis sp): 32 mm |
| CN(CCc1ccccc1)Cc1c(CC2CCCCC2)[nH]c2ccnc(Cl)c12 | 10 (≈ 25.3 µM) | inactive | 32 mm | 32 | 32 mm | 32 mm | inactive | inactive | inactive | inactive | inactive | 8 (≈ 20.2 µM) | 9 (≈ 22.7 µM) | 10 (≈ 25.3 µM) | 6.25 (≈ 15.8 µM) | inhibition at 72 h, 50 ug/ml [10]: 19.1%; IC50 (HEK-293T): > 50 µg/mL; selectivity ratio [11]: > 16 |
| Clc1nccc2[nH]c(CC3CCCCC3)c(CN3CCOCC3)c12 | 35 (≈ 101 µM) | inactive | 20 mm | 20 | 20 mm | 20 mm | inactive | inactive | inactive | inactive | inactive | 40 (≈ 115 µM) | 40 (≈ 115 µM) | 30 (≈ 86.2 µM) | 25 (≈ 71.9 µM) | inhibition at 72 h, 50 ug/ml [10]: 21.2%; IC50 (HEK-293T): > 50 µg/mL; selectivity ratio [11]: 1 to 2 |
